Data published in patent publication US20250332180A1, “CANNABINOIDS AND IL-15 ACTIVATE NK CELLS” (The Regents of the University of California, priority 2022, published 2025).

Columns and labels:
[1] = tested on: MP2 tumor cells; experiment: Cell count of viable cells (Trypan Blue, light microscope); format: cell-based, human; details: different concentrations of WIN 55,212-2, 24-48 hours
Description: (§1) The number of viable cells was counted under light microscope using Trypan Blue staining. Compiled data from three experiments performed is shown.
(§2) The number of viable cells was counted under light microscope using Trypan Blue staining (Sigma, MO, USA).

[2] = tested on: PL-12 tumor cells; experiment: as above; format: cell-based, human; details: different concentrations of WIN 55,212-2, 24-48 hours
Description: as §1, §2

[3] = tested on: OSCCs; experiment: Cell death assay (PI staining, flow cytometry); format: cell-based, human; details: 24 hours
Method: (§3) No differences between untreated tumor cells and those treated with the DMSO vehicle alone in cell count or the amount of cell death in OSCCs and OSCSCs. […] Proportion of the live cells that had lost forward and side scatter were determined indicating decreased viability of the cells. In addition, the numbers of viable cells were determined after PI staining followed by flow cytometric analysis (FIG. 2A). OSCC tumor cells were treated as in FIG. 2A and the cells were analyzed by flow cytometry to determine the proportion of the live cells that had lost forward and side scatter indicating decreased viability of the cells (FIG. 2B) and the numbers of viable OSCC tumor cells were determined after PI staining followed by flow cytometric analysis (FIG. 2C). […] PI staining was used to determine the cell death by flow cytometry. One of four representative experiment is shown in (FIG. 2D). The compiled data of paired OSCCs and OSCSCs at the same concentration of WIN 55,212-2 treatment from four experiments is shown in (FIG. 2E). Four experiments were compiled and the % cell death of tumor cells by various WIN 55-212,2 concentrations (10, 25, 50 and 100 μM) were compared to the untreated control for both OSCC (FIG. 2F) and OSCSC (FIG. 2G). […] Non-linear regression was used to fit the curve of the % cell death induced by WIN 55-212,2 in various concentrations (10, 25, 50 and 100 μM) for both OSCC and OSCSC. […] The differences were clear within each independent experiment.
(§4) PI staining was used to determine the cell death by flow cytometry. Compiled data from four independent experiments performed is shown.

[4] = tested on: OSCSCs; experiment: Cell death assay (PI staining, flow cytometry); format: cell-based, human
Method: as §3, §4

[5] = tested on: OSCCs; experiment: Microscopy of morphology and viability; format: cell-based, human
Method: (§5) Chemical structure of WIN 55,212-2 (FIG. 7A). […] OSCCs and OSCSCs were treated with CDDP (50 μg/mL) and different concentrations of WIN 55,212-2 for 24 hours before the microscopic images were taken. Scale bar=50 μm (FIG. 7B).

[6] = tested on: OSCSCs; experiment: Microscopy of morphology and viability; format: cell-based, human; details: WIN 55,212-2, even at the lowest concentrations, 24 h
Method: as §5

[7] = tested on: OSCCs
[8] = tested on: tumors; details: cited from earlier work
[9] = vs untreated controls, 24 hours, up to 50 μM

CS(=O)(=O)O.Cc1c(C(=O)c2cccc3ccccc23)c2cccc3c2n1[C@H](CN1CCOCC1)CO3 [WIN 55,212-2, (R)-(+)-[2,3-Dihydro-5-methyl-3-(4-morpholinylmethyl)pyrrolo[1,2,3-de]-1,4-benzoxazin-6-yl]-1-naphthalenylmethanone mesylate]
decreased numbers of viable cells [1]: 60-85% | decreased numbers of viable cells [2]: 50-70% | cell death (PI staining) ([3]; 75 and 100 μM): up to 10% | forward scatter/side scatter (size of cells, early apoptosis) ([3]; different concentrations): significant dose dependent decrease | amounts of cell death in OSCSCs compared with those induced by CDDP ([4]; 25-100 μM): either similar or higher | cell death (PI staining) compared with OSCCs ([4]; all concentrations tested, 24 hours): higher cell death | morphology and viability ([5]; 50 μM or higher concentrations of WIN 55,212-2, 24 h): some of the OSCCs still remained viable but others rounded up and detached and were not viable | morphology and viability ([5]; low concentrations of WIN 55,212-2, 24 h): remained viable | morphology and attachment [6]: became detached from the culture plates | decrease in cell surface MHC class I expression, OSCCs compared with OSCSCs ([7]; after WIN 55,212-2 treatment): Significantly greater decrease | cell surface expression of CD44 [7, 9]: Decreased expression | cell surface expression of CD54 [7, 9]: Decreased expression | cell surface expression of MHC class I [7, 9]: Decreased expression | cell surface expression of PD-L1 [7, 9]: Decreased expression | migration and invasion of tumors ([8]; previously reported in several studies): inhibiting | anti-tumor effect, mechanism ([8]; previously reported): inducing caspase-independent apoptosis
